Source: patent US20190083460A1, “ANALGESIC COMPOUNDS” (ZENO ROYALTIES & MILESTONES, LLC, priority 2016, published 2019)

System: male ICR mice
Assay: Formalin Paw Test
Type: in vivo
Settings: 30 mg/kg intraperitoneal; for Early Phase: early/acute phase (0-10 minutes) after 2% formalin into hind paw; for Late Phase: late/tonic phase (10-35 minutes) after 2% formalin into hind paw
Procedure: One test compound or the vehicle was administered to each mouse in each test group (8 mice per group). Non-fasted male ICR mice weighing 23±3 g were used. Test compounds were administered at a concentration of 3 mg/kg, 10 mg/kg, 15 mg/kg, 30 mg/kg, 60 mg/kg, 100 mg/kg, 200 mg/kg or 300 mg/kg; morphine was administered at a concentration of 5 mg/kg; and acetaminophen was administered at a concentration of 200 mg/kg. The control group received the vehicle (5% DMSO/40% PEG400/20% HPbCD/Saline). After 30 or 60 minutes, a 2% formalin solution (0.02 mL) was injected into one hind paw (sub-plantar) of each mouse. Responses were measured every 5 minutes after the formalin injection for 35 minutes.
The results in Table A are for intraperitoneal administration. In Table A, ‘A’ designates <70 licks/sec, ‘B’ designates ≥70 licks/sec and <165 licks/sec, and ‘C’ designates ≥165 licks/sec.

Compound | Early Phase | Late Phase
NC1CC2(COC2)C1 [Compound I-1] | B (‘B’ designates ≥70 licks/sec and <165 licks/sec) | B (‘B’ designates ≥70 licks/sec and <165 licks/sec)
NC1CCCOCC1 (stereo not shown) [Compound I-4] | B (‘B’ designates ≥70 licks/sec and <165 licks/sec) | C (‘C’ designates ≥165 licks/sec)
